Experimental data as given in article PMC5654082 (Malaria Journal, 2017).
Where a name gives a salt, the structure may show the parent alone.

Tests used:
[1] = set-up: method as in earlier work; conditions: unchanged PG; cited from earlier work
MATE1 = biological target: T1, MATE1 (Homo sapiens, UniProt Q96FL8); assay: Export assay in HEK293 cells co-transduced with OCT1 and MATE1; assay type: cell-based; set-up: host or cells: HEK293, baculovirus transduction (CMV promoter), transient; co-transduced with human OCT1 in the export assay; conditions: cells expressing OCT1 and MATE1; 1 µM, 1 min, pH 7.4
T1 sequence (Q96FL8 1-570): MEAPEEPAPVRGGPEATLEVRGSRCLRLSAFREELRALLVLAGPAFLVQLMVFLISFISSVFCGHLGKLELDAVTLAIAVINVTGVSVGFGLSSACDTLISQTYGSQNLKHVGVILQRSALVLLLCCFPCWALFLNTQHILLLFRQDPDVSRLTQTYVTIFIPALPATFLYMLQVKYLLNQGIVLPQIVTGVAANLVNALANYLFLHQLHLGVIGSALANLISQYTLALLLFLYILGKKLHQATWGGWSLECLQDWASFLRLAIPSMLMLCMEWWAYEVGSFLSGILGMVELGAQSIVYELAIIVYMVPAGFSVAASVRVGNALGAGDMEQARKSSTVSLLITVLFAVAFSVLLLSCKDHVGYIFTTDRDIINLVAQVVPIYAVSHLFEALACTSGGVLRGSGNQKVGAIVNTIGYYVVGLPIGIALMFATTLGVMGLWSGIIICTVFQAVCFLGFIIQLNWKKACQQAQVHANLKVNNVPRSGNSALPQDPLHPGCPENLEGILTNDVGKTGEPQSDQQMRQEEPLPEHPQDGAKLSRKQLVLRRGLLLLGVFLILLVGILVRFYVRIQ
Experimental: HEK293 cells were modified to transiently express (a combination of) human OCT1, OCT2, MATE1, MATE2-K, or eYFP. Briefly, cDNA of the respective genes was cloned downstream of a CMV promoter into a baculovirus, of which passage three was used to transduce HEK293 cells. These cells were seeded in poly-D-lysine coated 24- or 96-wells plates and grown in a 37 °C incubator at 5% CO2. Growth was initiated at ~ 25% confluency using 375 or 125 μL cell and complete medium (DMEM + GlutaMAX™-I supplemented with 10% fetal bovine serum) suspension per well, respectively. […]
Import and export of PG and cycloguanil (CG) was assessed by single and double transduced HEK293 cells. […] Significant reduction in uptake (i.e. export by MATEs) was determined using ln transformation and a one-way repeated measures ANOVA with Dunnet’s post test.
(§1) Anti-malarial concentration in the cell lysates was quantified using an LC–MS/MS system consisting of a UPLC, a binary solvent manager, a vacuum degasser and an autosampler, coupled to a Xevo TQ-S micro triple quadrupole mass spectrometer. […] Positive ion mode was used with selected reaction monitoring (SRM) for the quantitative analysis of AMO, ART, ATO, CQ, CG, DHA, LUM, MQ, PQ, PG, and QN. The peak area of the most abundant product ion was used for quantification.

MATE2-K = MATE2-K (Homo sapiens, UniProt Q86VL8); assay: Export assay in HEK293 cells co-transduced with OCT1 and MATE2-K; assay type: cell-based; set-up: host or cells: HEK293, baculovirus transduction (CMV promoter), transient; co-transduced with human OCT1 in the export assay
Chain of MATE2-K (Q86VL8 1-566 isoform Q86VL8-3): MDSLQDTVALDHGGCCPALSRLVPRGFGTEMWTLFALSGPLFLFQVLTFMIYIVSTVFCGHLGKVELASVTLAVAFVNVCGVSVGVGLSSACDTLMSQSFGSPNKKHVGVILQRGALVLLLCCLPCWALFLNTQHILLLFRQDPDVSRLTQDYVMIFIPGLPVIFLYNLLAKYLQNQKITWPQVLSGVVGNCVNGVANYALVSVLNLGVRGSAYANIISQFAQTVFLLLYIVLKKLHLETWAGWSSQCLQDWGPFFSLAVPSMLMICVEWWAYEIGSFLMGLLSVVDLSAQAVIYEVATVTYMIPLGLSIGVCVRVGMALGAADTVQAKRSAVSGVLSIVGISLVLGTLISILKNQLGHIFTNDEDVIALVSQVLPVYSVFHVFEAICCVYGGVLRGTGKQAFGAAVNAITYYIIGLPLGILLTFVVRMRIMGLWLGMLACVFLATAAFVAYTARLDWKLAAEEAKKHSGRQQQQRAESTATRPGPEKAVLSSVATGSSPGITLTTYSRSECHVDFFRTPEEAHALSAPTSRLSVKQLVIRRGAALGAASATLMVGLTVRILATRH
Experimental: HEK293 cells were modified to transiently express (a combination of) human OCT1, OCT2, MATE1, MATE2-K, or eYFP. Briefly, cDNA of the respective genes was cloned downstream of a CMV promoter into a baculovirus, of which passage three was used to transduce HEK293 cells. These cells were seeded in poly-D-lysine coated 24- or 96-wells plates and grown in a 37 °C incubator at 5% CO2. Growth was initiated at ~ 25% confluency using 375 or 125 μL cell and complete medium (DMEM + GlutaMAX™-I supplemented with 10% fetal bovine serum) suspension per well, respectively. After 24 h, cells were transduced with 30 µL virus (10 µL virus + 20 µL complete medium in case of 96-wells plates) or 2 × 15 µL virus for cells that required simultaneous expression of two transporters. Finally, 195 µL sodium butyrate (45 µL for 96-wells plates) was added to a final concentration of 2 mM to enhance protein expression.
Import and export of PG and cycloguanil (CG) was assessed by single and double transduced HEK293 cells. In short, HEK293 cells seeded in 24-wells plates as described, were transduced separately with eYFP, OCT1, OCT2, MATE1 or MATE2-K, or with combinations of these viruses. Following the same procedure as for the cellular import assay described above, the import of 100 µM PG and CG was measured after 5 min incubation and data was plotted as mean pmol/mg/min ± SEM. For export (following OCT1 uptake) of 1 µM PG after 1 min of transport at pH 7.4, percentage of remaining cellular PG (compared to background) was plotted as mean ± SEM in GraphPad version 5.03. Significant reduction in uptake (i.e. export by MATEs) was determined using ln transformation and a one-way repeated measures ANOVA with Dunnet’s post test.
as §1, with “spectrometer. Liquid chromatographic separation of the samples (stored at 10 °C; injection volume of 10 µL) was performed at 40 °C using a HSS T3 analytical column (1.8 μm; 100 × 2.1 mm) coupled to a VanGuard HSS T3 pre-column (1.8 µm; 5 × 2.1 mm).” for “spectrometer.”

[H]/N=C(\N/C(=N/[H])Nc1ccc(Cl)cc1)NC(C)C [Proguanil, proguanil hydrochloride]
Excretion into the urine [1]: < 40% | Uptake, percentage of eYFP control cells (MATE1): 780 ± 70% | Intracellular concentration, percentage of its initial value (MATE2-K; MATE2-K co-transduced with OCT1): 56% | Relative decrease in uptake by MATE2-K (MATE2-K; OCT1/MATE2-K versus eYFP/OCT1 cells, 1 µM, 1 min): 44% | Uptake, percentage of eYFP control cells (MATE2-K; cells expressing OCT1 and MATE2-K, 1 µM, 1 min, pH 7.4): 470 ± 80% | Fraction exported by MATE2-K (MATE2-K; compared to eYFP/OCT1 transduced cells, 1 µM, 1 min): approximately 50%
